Laboratory results reported in patent US20260166162A1, “CARBON CHAIN SUBSTANCE FOR REGULATING TRANSMEMBRANE TRANSPORT AND FLUIDITY OF CELL MEMBRANES, AND PREPARATION AND USE THEREOF” (priority 2022, published 2026).
pIC50: −log10 of the molar value. Where two headings read alike, the source gives them in different places.

Legend:
[1] = tested on: influenza pseudovirus H7N9-Fluc; experiment: microbe, parasite or virus in culture; type: cell-based; conditions: n=3
Neocopyovirus = type: in vivo; conditions: 1 mM; n=3
Escherichia coli = experiment: Bacteriostasis/sterilization test (plate count); type: cell-based; conditions: Escherichia coli, read-out: Inhibition rate (%)
Staphylococcus aureus = experiment: Bacteriostasis/sterilization test (plate count); type: cell-based; conditions: for inhibition at 35 µM: 0.035 mM (Table 25), read-out: Inhibition rate (%); for inhibition at 9 µM: concentration 0.009 mM, read-out: inhibition rate; for pIC50: read-out: half inhibition concentration
Streptococcus pneumoniae = experiment: Bacteriostasis/sterilization test (plate count); type: cell-based; conditions: Streptococcus pneumoniae, read-out: Inhibition rate (%)
Klebsiella pneumoniae = experiment: Bacteriostasis/sterilization test (plate count); type: cell-based; conditions: Klebsiella pneumoniae, read-out: Inhibition rate (%)
Pseudomonas aeruginosa = experiment: Bacteriostasis/sterilization test (plate count); type: cell-based; conditions: Pseudomonas aeruginosa, read-out: Inhibition rate (%)
H7N9 pseudovirus = type: cell-based, Influenza pseudovirus H7N9-Fluc
H5N1 pseudovirus = type: cell-based, Influenza pseudovirus H5N1-Fluc
HIV pseudovirus = type: cell-based, HIV pseudovirus HIV18A-41
SARS-CoV-2 pseudovirus = type: cell-based, SARS-CoV-2 pseudovirus B.1.526.2
[2] = mouse, in vivo, po
VERO E6 cells = experiment: Cytotoxicity (CCK-8) on VERO E6 cells
TNF-α [3] = experiment: Skin photoaging (UVB) in BALB/c nude mice, serum TNF-α (Example II-54, Table II-32); type: in vivo, mouse; conditions: UVB-irradiated BALB/c nude mice, 40 days
IL-1β [4] = experiment: Skin photoaging (UVB) in BALB/c nude mice, serum IL-1β (Example II-54, Table II-33); type: in vivo, mouse; conditions: serum, UVB-irradiated BALB/c nude mice, 40 days
IL-6 [5] = experiment: Skin photoaging (UVB) in BALB/c nude mice, serum IL-6 (Example II-54, Table II-34); type: in vivo, mouse; conditions: serum, UVB-irradiated BALB/c nude mice, 40 days
IL-1β [6] = experiment: LPS inflammatory aging in C57BL/6 mice, serum IL-1β (Example II-55, Table II-35); type: in vivo, mouse; conditions: 1 mM, 200 μl/time, once a day, 30 days
IL-6 [7] = experiment: LPS inflammatory aging in C57BL/6 mice, serum IL-6 (Example II-55, Table II-36); type: in vivo, mouse; conditions: 1 mM, 200 μl/time once a day for 30 days; serum, LPS C57BL/6 mice
TNF-α [8] = experiment: LPS inflammatory aging in C57BL/6 mice, serum TNF-α (Example II-55, Table II-37); type: in vivo, mouse; conditions: 1 mM, 200 μl/time once a day for 30 days, LPS C57BL/6 mice
HIV pseudovirus (18A-41) = type: cell-based; conditions: 293T cells pretreated 4 h, n=3

Molecule: Glucosamine-erucic acid
- Inhibition rate (%) ([1]; 2 nM): 50.54 ± 3.54%
- Inhibition rate (%) ([1]; 5 nM): 39.66 ± 3.66%
- Inhibition rate (%) ([1]; 10 nM): 48.04 ± 7.56%
- Inhibition rate (%) ([1]; 50 nM): 47.33 ± 4.56%
- Inhibition rate (%) ([1]; 100 nM): 53.86 ± 3.98%
- Inhibition rate (%) ([1]; 1 μM): 12.07 ± 2.65%
- Inhibition rate (%) ([1]; 10 μM): 54.05 ± 5.05%
- Inhibition rate (%) ([1]; 50 μM): 91.44 ± 4.48%
- Inhibition rate (%) ([1]; 100 μM): 99.78 ± 5.64%
- Fluorescence intensity (Neocopyovirus): 6.8 ± 0.49

Molecule: CCCCCCCCCN(C)C[C@H](O)[C@@H](O)[C@H](O)[C@H](O)CO [N-nonyl-N-methylglucamine]
- inhibition at 35 µM (Escherichia coli): 99%
- inhibition at 35 µM (Staphylococcus aureus; Staphylococcus aureus): 99%
- inhibition at 9 µM (Staphylococcus aureus; Staphylococcus aureus): > 99%
- pIC50 (Staphylococcus aureus; Staphylococcus aureus): 5.52
- inhibition at 35 µM (Streptococcus pneumoniae): 99%
- inhibition at 35 µM (Klebsiella pneumoniae): 99%
- inhibition at 35 µM (Pseudomonas aeruginosa): 99%
- Sterilization rate (%) (H7N9 pseudovirus): 99%
- Sterilization rate (%) (H5N1 pseudovirus): 99%
- Sterilization rate (%) (HIV pseudovirus): 99%
- Sterilization rate (%) (SARS-CoV-2 pseudovirus): 99%
- liver, heart, kidney, bone/hepatobiliary function in blood versus control group [2]: no difference
- physiological state, body weight, fur color, food consumption, mental state versus control group [2]: not significantly different
- effect of the complex on cells (VERO E6 cells; 9 mM to 0.035 mM): less than 10%

Molecule: CCCCCCCC/C=C\CCCCCCCC(=O)NCCCCC(N)C(=O)O (centres unmarked)
- inhibition rate (Staphylococcus aureus; concentration 0.035 mM): greater than 99%
- pIC50 (Staphylococcus aureus): 5.05
- liver, heart, kidney, bone/hepatobiliary function in blood versus control group [2]: no difference
- physiological state, body weight, fur color, food consumption, mental state versus control group [2]: not significantly different
- effect of the complex on cells (VERO E6 cells; […] to 0.035 mM): less than 1%

Molecule: CCCCCCC(O)CC=CCCCCCCCC(=O)NCCCCC(N)C(=O)O (centres unmarked) [Lys-ricinoleic acid]
- TNF-α (TNF-α [3]; 30 μM smeared): 60 pg/mL
- TNF-α (TNF-α [3]; 50 μM smeared): 55 pg/mL
- TNF-α (TNF-α [3]; 100 μM smeared): 57 pg/mL
- IL-1β (IL-1β [4]; 30 μM smeared): 70 pg/mL
- IL-1β (IL-1β [4]; 50 μM smeared): 65 pg/mL
- IL-1β (IL-1β [4]; 100 μM smeared): 63 pg/mL
- IL-6 (IL-6 [5]; 30 μM smeared): 34 pg/mL
- IL-6 (IL-6 [5]; 50 μM smeared): 38 pg/mL
- IL-6 (IL-6 [5]; 100 μM smeared): 33 pg/mL
- IL-1β (IL-1β [6]): 51 pg/mL
- IL-6 (IL-6 [7]): 60 pg/mL
- TNF-α (TNF-α [8]): 43 pg/mL

Molecule: Threonine-tetracosanoic acid
- Inhibition rate (%) (HIV pseudovirus (18A-41); 2 nM): 81.01 ± 5.26%
- Inhibition rate (%) (HIV pseudovirus (18A-41); 5 nM): 92.25 ± 5.03%
- Inhibition rate (%) (HIV pseudovirus (18A-41); 10 nM): 94.06 ± 6.46%
- Inhibition rate (%) (HIV pseudovirus (18A-41); 50 nM): 99.01 ± 6.33%
- Inhibition rate (%) (HIV pseudovirus (18A-41); 100 nM): 98.64 ± 5.77%
- Inhibition rate (%) (HIV pseudovirus (18A-41); 1 μM): -42.03 ± 3.83%
- Inhibition rate (%) (HIV pseudovirus (18A-41); 10 μM): -64.26 ± 6.54%
- Inhibition rate (%) (HIV pseudovirus (18A-41); 50 μM): 81.96 ± 6.75%
- Inhibition rate (%) (HIV pseudovirus (18A-41); 100 μM, negative value = promotes infection): 83.84 ± 3.84%
- Fluorescence intensity (Neocopyovirus): 2.9 ± 0.11

Molecule: CCCCCCCCN(C)C[C@H](O)[C@@H](O)[C@H](O)[C@H](O)CO [N-octyl-N-methylglucamine]
- inhibition at 35 µM (Escherichia coli): 99%
- inhibition at 35 µM (Staphylococcus aureus; Staphylococcus aureus): 99%
- inhibition at 9 µM (Staphylococcus aureus; Staphylococcus aureus): > 99%
- pIC50 (Staphylococcus aureus; Staphylococcus aureus): 5.52
- inhibition at 35 µM (Streptococcus pneumoniae): 99%
- inhibition at 35 µM (Klebsiella pneumoniae): 99%
- inhibition at 35 µM (Pseudomonas aeruginosa): 99%
- Sterilization rate (%) (H7N9 pseudovirus): 99%
- Sterilization rate (%) (H5N1 pseudovirus): 99%
- Sterilization rate (%) (HIV pseudovirus): 99%
- Sterilization rate (%) (SARS-CoV-2 pseudovirus): 99%
- liver, heart, kidney, bone/hepatobiliary function in blood versus control group [2]: no difference
- physiological state, body weight, fur color, food consumption, mental state versus control group [2]: not significantly different
- effect of the complex on cells (VERO E6 cells; 9 mM to 0.035 mM): less than 10%
